According to ChEMBL document CHEMBL6109155, “Discovery of Phenylacylpiperidine as Novel sEH Inhibitors through Scaffold Hopping of Natural Stilbene” (J Med Chem, 2025):
Activity calls are given as the source filed them. The calls are words filed in the database; no cut-off is given here.

Legend:
Mus musculus [1] = assay: Anti-inflammatory activity in BALB/c mouse model of carrageenan-induced paw edema assessed as inhibition of paw swelling at 1 mg/kg, po measured up to 6 hrs relative to control; type: functional
Mus musculus [2] = assay: Anti-inflammatory activity in BALB/c mouse model of carrageenan-induced paw edema assessed as inhibition of paw swelling at 1 mg/kg, po measured after 6 hrs relative to control; type: functional
Mus musculus [3] = assay: Effect on ratio of 5,6-EET to DHET plasma levels in BALB/c mouse model of carrageenan-induced paw edema at 10 mg/kg, po measured after 6 hrs; type: functional, organism-based
Mus musculus [4] = assay: Anti-inflammatory activity in BALB/c mouse model of carrageenan-induced paw edema assessed as increase in ratio of 11,12-EET to DHET plasma levels at 10 mg/kg, po measured after 6 hrs relative to control; type: functional
Mus musculus [5] = assay: Anti-inflammatory activity in BALB/c mouse model of carrageenan-induced paw edema assessed as increase in ratio of 14,15-EET to DHET plasma levels at 10 mg/kg, po measured after 6 hrs relative to control; type: functional
Rattus norvegicus [6] = assay: Anti-inflammatory activity in Sprague-Dawley rat model of CFA-induced rheumatoid arthritis assessed as improvement in joint tissue structure at 10 mg/kg, po administered daily measured after 19 days by H and E staining based analysis; type: functional, organism-based; details: time 19.0 day
Rattus norvegicus [7] = assay: Anti-inflammatory activity in Sprague-Dawley rat model of CFA-induced rheumatoid arthritis assessed as improvement in joint cavity at 10 mg/kg, po administered daily measured after 19 days by H and E staining based analysis; type: functional, organism-based; details: time 19.0 day
RAW264.7 [8] = assay: Anti-inflammatory activity in LPS-indeced mouse RAW264.7 cells assessed as reduction in TNF-alpha level at 10 uM preincubated for 1 hr followed by LPS addition measured after 24 hrs by ELISA; type: functional, cell-based; details: time 25.0 hrs
RAW264.7 [9] = assay: Anti-inflammatory activity in LPS-indeced mouse RAW264.7 cells assessed as reduction in IL-1beta level at 10 uM preincubated for 1 hr followed by LPS addition measured after 24 hrs by ELISA; type: functional, cell-based
Rattus norvegicus [10] = assay: Anti-inflammatory activity in Sprague-Dawley rat model of CFA-induced rheumatoid arthritis assessed as decrease in paw redness at 10 mg/kg, po administered daily measured after 7 days; type: functional, organism-based; details: time 7.0 day
Rattus norvegicus [11] = assay: Anti-inflammatory activity in Sprague-Dawley rat model of CFA-induced rheumatoid arthritis assessed as decrease in paw swelling at 10 mg/kg, po administered daily measured after 7 days; type: functional, organism-based; details: time 7.0 day
Rattus norvegicus [12] = assay: Anti-inflammatory activity in Sprague-Dawley rat model of CFA-induced rheumatoid arthritis assessed as improvement in food intake at 10 mg/kg, po administered daily measured for 19 days; type: functional, organism-based; details: time 19.0 day
Rattus norvegicus [13] = assay: Anti-inflammatory activity in Sprague-Dawley rat model of CFA-induced rheumatoid arthritis assessed as improvement in body weight at 10 mg/kg, po administered daily measured for 19 days; type: functional, organism-based; details: time 19.0 day
Rattus norvegicus [14] = assay: Anti-inflammatory activity in Sprague-Dawley rat model of CFA-induced rheumatoid arthritis assessed as smooth cartilage surface at 10 mg/kg, po administered daily measured after 19 days by H and E staining based analysis; type: functional, organism-based; details: time 19.0 day
Rattus norvegicus [15] = assay: Anti-inflammatory activity in Sprague-Dawley rat model of CFA-induced rheumatoid arthritis assessed as improvement in chondrocytes morphology at 10 mg/kg, po administered daily measured after 19 days by H and E staining based analysis; type: functional, organism-based; details: time 19.0 day
Rattus norvegicus [16] = assay: Anti-inflammatory activity in Sprague-Dawley rat model of CFA-induced rheumatoid arthritis assessed as decrease in plasma IL-6 level at 10 mg/kg, po administered daily measured after 19 days relative to control; type: functional; parameters: scale not given: the % may be the effect or the level left; details: time 19 day
Rattus norvegicus [17] = assay: Anti-inflammatory activity in Sprague-Dawley rat model of CFA-induced rheumatoid arthritis assessed as TV value at 10 mg/kg, po administered daily measured after 19 days by micro-CT analysis (reference value: 92.617 mm3); type: functional; details: time 19 day
Rattus norvegicus [18] = assay: Anti-inflammatory activity in Sprague-Dawley rat model of CFA-induced rheumatoid arthritis assessed as BS value at 10 mg/kg, po administered daily measured after 19 days by micro-CT analysis (reference value: 636.014 mm2); type: functional; details: time 19 day
Rattus norvegicus [19] = assay: Anti-inflammatory activity in Sprague-Dawley rat model of CFA-induced rheumatoid arthritis assessed as increase in ratio of plasma 8,9-EET to DHET levels at 10 mg/kg, po administered daily measured after 19 days relative to control; type: functional; details: time 19 day
[20] = In vivo inhibition of liver sEH enzyme activity in Sprague-Dawley rat model of CFA-induced rheumatoid arthritis at 10 mg/kg, po administered daily measured after 19 days relative to control; type: functional; details: 456 h, time 19 day
Mus musculus [21] = assay: (§1) Anti-inflammatory activity in CD-1 mouse model of cerulein-induced acute pancreatitis assessed as decrease in pancreatic edema at 10 mg/kg, ip drug administered at 30 mins and 2.5 hrs post-first cerulein injection and measured after 6 hrs post-first cerulein injection by H and E staining based analysis; type: functional, organism-based; details: time 3.5-5.5 hrs
Mus musculus [22] = assay: as §1, with “inflammatory response in pancreas” for “pancreatic edema”; type: functional, organism-based; details: time 3.5-5.5 hrs
Mus musculus [23] = assay: Anti-inflammatory activity in CD-1 mouse model of cerulein-induced acute pancreatitis assessed as decrease in plasma TNF-alpha level at 10 mg/kg, ip drug administered at 30 mins and 2.5 hrs post-first cerulein injection and measured after 6 hrs post-first cerulein injection; type: functional, organism-based; details: time 3.5-5.5 hrs
Mus musculus [24] = assay: (§2) Anti-inflammatory activity in CD-1 mouse model of cerulein-induced acute pancreatitis assessed as increase in ratio of pancreatic EET/DHET level at 10 mg/kg, ip drug administered at 30 mins and 2.5 hrs post-first cerulein injection and measured after 6 hrs post-first cerulein injection (reference value: 23.5 to 41.7 %); type: functional; details: time 3.5-5.5 hrs
Mus musculus [25] = assay: as §2, with “plasma 11,12-EET/DHET” for “pancreatic EET/DHET”, “69.8” for “23.5”, “77.3” for “41.7”; type: functional; details: time 3.5-5.5 hrs
Mus musculus [26] = assay: as §2, with “plasma 14,15-EET/DHET” for “pancreatic EET/DHET”, “69.8” for “23.5”, “77.3” for “41.7”; type: functional; details: time 3.5-5.5 hrs
hERG = hERG (Homo sapiens, UniProt Q12809); assay: Inhibition of hERG at 10 uM by whole-cell patch-clamp method relative to control; type: toxicity
[27] = Cmax in liver of C57BL/6J mouse at 20 mg/kg, po measured for 24 hrs; type: ADME, organism-based
[28] = Ratio of Cmax in liver to plasma in C57BL/6J mouse at 20 mg/kg, po measured for 24 hrs; type: ADME, organism-based; details: liver and plasma
[29] = Ratio of Cmax in brain to plasma in C57BL/6J mouse at 20 mg/kg, po measured for 24 hrs; type: ADME, organism-based; details: brain and plasma
[30] = AUC (0 to 24 hrs) in kidney of C57BL/6J mouse at 20 mg/kg, po measured for 24 hrs; type: ADME, organism-based
[31] = Tmax in Sprague-Dawley rat at 20 mg/kg, po measured for 24 hrs; type: ADME, organism-based; details: in vivo
[32] = Cmax in Sprague-Dawley rat at 20 mg/kg, po measured for 24 hrs; type: ADME, organism-based; details: in vivo
[33] = AUC (0 to 24 hrs) in Sprague-Dawley rat at 20 mg/kg, po measured for 24 hrs; type: ADME, organism-based; details: in vivo
[34] = Tmax in Sprague-Dawley rat at 5 mg/kg, iv measured for 24 hrs; type: ADME, organism-based; details: in vivo

Chain of hERG (Q12809 whole entry): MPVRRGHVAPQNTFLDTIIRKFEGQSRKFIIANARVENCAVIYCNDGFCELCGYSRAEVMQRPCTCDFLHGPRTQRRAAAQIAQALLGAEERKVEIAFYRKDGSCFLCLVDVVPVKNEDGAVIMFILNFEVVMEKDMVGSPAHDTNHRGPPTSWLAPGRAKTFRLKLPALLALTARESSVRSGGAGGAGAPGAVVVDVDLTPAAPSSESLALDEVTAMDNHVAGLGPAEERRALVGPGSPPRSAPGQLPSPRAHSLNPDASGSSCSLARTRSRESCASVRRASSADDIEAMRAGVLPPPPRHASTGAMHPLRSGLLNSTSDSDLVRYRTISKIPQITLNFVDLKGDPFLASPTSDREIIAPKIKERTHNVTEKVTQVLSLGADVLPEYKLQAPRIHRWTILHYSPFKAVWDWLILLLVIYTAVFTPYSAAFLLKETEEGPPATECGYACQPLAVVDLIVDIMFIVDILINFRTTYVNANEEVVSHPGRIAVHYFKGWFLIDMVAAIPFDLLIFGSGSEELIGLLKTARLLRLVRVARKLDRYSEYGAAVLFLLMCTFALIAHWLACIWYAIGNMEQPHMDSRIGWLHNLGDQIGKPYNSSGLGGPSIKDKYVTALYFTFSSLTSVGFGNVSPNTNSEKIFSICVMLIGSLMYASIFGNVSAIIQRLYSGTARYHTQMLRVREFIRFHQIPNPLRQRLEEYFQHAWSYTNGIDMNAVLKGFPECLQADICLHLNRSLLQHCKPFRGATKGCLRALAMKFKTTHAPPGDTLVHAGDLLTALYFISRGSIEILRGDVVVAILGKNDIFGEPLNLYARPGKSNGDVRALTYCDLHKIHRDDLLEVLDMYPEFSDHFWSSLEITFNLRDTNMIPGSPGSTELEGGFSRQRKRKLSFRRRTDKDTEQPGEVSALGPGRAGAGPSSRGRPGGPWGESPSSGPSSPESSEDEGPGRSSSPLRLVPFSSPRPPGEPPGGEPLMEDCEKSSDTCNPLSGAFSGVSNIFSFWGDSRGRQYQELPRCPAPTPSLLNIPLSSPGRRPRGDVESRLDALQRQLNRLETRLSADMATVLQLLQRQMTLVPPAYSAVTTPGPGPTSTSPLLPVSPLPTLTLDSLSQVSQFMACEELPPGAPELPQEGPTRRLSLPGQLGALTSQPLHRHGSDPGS

COc1cc(CC(=O)N2CCC(NC(=O)NCc3ccc(OC(F)(F)F)cc3)CC2)cc(OC)c1
inhibition in vivo at 1 mg/kg (Mus musculus [1]): 34% | inhibition in vivo at 1 mg/kg (Mus musculus [2]): 22% | Activity (Mus musculus [3]): No effect | Activity (Mus musculus [4]): 362% | Activity (Mus musculus [5]): 677% | Activity (Rattus norvegicus [6]): Active | Activity (Rattus norvegicus [7]): Active | Activity (RAW264.7 [8]): Active | Activity (RAW264.7 [9]): Active | Activity (Rattus norvegicus [10]): Active | Activity (Rattus norvegicus [11]): Active | Activity (Rattus norvegicus [12]): Active | Activity (Rattus norvegicus [13]): Active | Activity (Rattus norvegicus [14]): Active | Activity (Rattus norvegicus [15]): Active | Activity (Rattus norvegicus [16]): 60% | Activity (Rattus norvegicus [17]): 57.762 mm3 | Activity (Rattus norvegicus [18]): 432.009 mm2 | Activity (Rattus norvegicus [19]): 203% | inhibition in vivo at 10 mg/kg [20]: 24.7% | Activity (Mus musculus [21]): Active | Activity (Mus musculus [22]): Active | Activity (Mus musculus [23]): Active | Activity (Mus musculus [24]): 311% | Activity (Mus musculus [25]): 552% | Activity (Mus musculus [26]): 905% | inhibition at 10 µM (hERG): 12.5% | Cmax [27]: 3230 ng/g | Kp at 24 h [28]: 6.71 | Kp at 24 h [29]: 0.06 | AUC(0-t) at 24 h [30]: 17200 ng·h/mL | Tmax [31]: 30 min | Cmax [32]: 359 ng/mL | AUC(0-t) at 24 h [33]: 725 ng·h/mL | Tmax [34]: 4.8 min
